target: T1, endothelial lipase (EL) (Homo sapiens, UniProt Q9Y5X9); assay: EL inhibition assay (EL activity assay, fluorescent Bodipy-labelled phospholipid substrate); assay type: biochemical; settings: enzyme solution = conditioned medium of recombinant cell lines (CHO, HEK293); 37° C., 90 minutes; pH=7.4
T1 construct: made in house; host or cells: recombinant cell lines (CHO, HEK293); concentrated conditioned medium used as enzyme solution
T1 sequence (Q9Y5X9 21-500): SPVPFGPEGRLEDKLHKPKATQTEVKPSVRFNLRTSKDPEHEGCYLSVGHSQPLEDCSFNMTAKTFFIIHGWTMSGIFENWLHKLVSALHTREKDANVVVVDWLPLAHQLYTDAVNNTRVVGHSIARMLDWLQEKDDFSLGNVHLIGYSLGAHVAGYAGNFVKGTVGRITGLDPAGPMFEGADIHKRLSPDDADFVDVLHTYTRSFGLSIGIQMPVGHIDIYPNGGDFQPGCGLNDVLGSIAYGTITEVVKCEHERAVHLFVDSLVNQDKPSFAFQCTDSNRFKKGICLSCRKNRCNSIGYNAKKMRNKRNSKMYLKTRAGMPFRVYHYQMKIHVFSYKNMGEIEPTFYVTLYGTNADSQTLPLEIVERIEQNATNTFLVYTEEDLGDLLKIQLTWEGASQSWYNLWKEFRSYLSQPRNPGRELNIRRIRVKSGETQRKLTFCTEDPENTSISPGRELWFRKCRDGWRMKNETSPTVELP
Source text: EL is released as secretory protein in high concentration into cell culture medium (conditioned medium) by recombinant cell lines (CHO, HEK293). This is employed as enzyme solution after concentration.
The phospholipase-specific substrate 1,2-bis(4,4-difluoro-5,7-dimethyl-4-bora-3a,4a-diaza-s-indacene-3-undecanoyl)-sn-glycero-3-phosphocholine, (manufacturer Molecular Probes) is used to characterize the enzymatic activity of endothelial lipase and the effect of inhibitors. Hydrolysis of the A1 ester linkage of this phospholipid by the enzyme liberates a fatty acid labeled with the fluorescent dye Bodipy which can be detected after separation by thin-layer chromatography on an HPTLC plate (silica gel 60, Merck) or directly in the reaction vessel by measuring the fluorescence. The substrate solution is prepared by dissolving 100 μg of 1,2-bis(4,4-difluoro-5,7-dimethyl-4-bora-3a,4a-diaza-s-indacene-3-undecanoyl)-sn-glycero-3-phospho-choline (manufacturer Molecular Probes) in 100 μl of DMSO and taking it up in 2.4 mg of tripalmitin (Sigma) in 393 μl of chloroform which contains 20 mg/ml of DOP-choline (1,2-dioleoyl-sn-glycero-3-phosphocholine). 39.3 μl of this lipid mixture are transferred into a fresh reaction vessel. After evaporation of the solvent, the lipid mixture is dissolved in 4 ml of 200 mM TRIS-HCl, 150 mM sodium chloride, pH=7.4, by sonication twice. The subsequent enzymic reaction takes place at 37° C. for 90 minutes. For this purpose, 20 μl of the substrate solution are incubated with 2 μl of inhibitor of appropriate concentration (dissolved in 10% DMSO, 10% strength DMSO solution is used as control) and 2 μl of enzyme solution (conditioned medium). Then 4 μl of the assay mixture are loaded onto an HPTLC plate (silica gel 60, Merck), and the liberated fluorescent dye is separated for detection with an eluent (diethyl ether:petroleum benzine:acetic acid [78:22:1]). After evaporation of the eluent, the plate is read in a fluorescence scanner. An increased release of the fluorescent dye in the uninhibited reaction is to be observed as a measure of the enzymic activity.
The enzymatic activity is reduced as a function of the inhibitor concentration used, and the inhibitor concentration at which a half-maximum enzymic activity is observed is called IC50.

First: CCCCCCNC(=O)N1C(=O)CN(Cc2ccccc2)C1=O [Example 1, 3-Benzyl-2,5-dioxoimidazolidine-1-hexylcarboxamide]
Second: CCCCCCCNC(=O)N1C(=O)CN(Cc2ccccc2)C1=O [Example 7, 3-Benzyl-2,5-dioxoimidazolidine-1-heptylcarboxamide]
The IC50 of the first is 17-fold lower: 0.005 µM for the first, 0.083 µM for the second. The first is the more potent here.

Cc1ccccc1CNC(=O)N1C(=O)CN(Cc2ccccc2)C1=O [Example 2, 3-Benzyl-2,5-dioxoimidazolidine-1-(2-methylbenzyl)carboxamide] and O=C1CN(Cc2ccccc2)C(=O)N1C(=O)N[C@H]1CCc2ccccc21 [Example 3, 3-Benzyl-2,5-dioxoimidazolidine-1-((S)-indan-1-yl)carboxamide] are within 1.5-fold of each other in IC50: 0.147 µM for the first, 0.145 µM for the second.

Compared with O=C1CN(Cc2ccccc2)C(=O)N1C(=O)N[C@@H]1CCc2ccccc21 [Example 4, 3-Benzyl-2,5-dioxoimidazolidine-1-((R)-indan-1-yl)carboxamide], O=C1CN(Cc2ccccc2)C(=O)N1C(=O)NC1CCCc2ccccc21 (centres unmarked) [Example 5, 3-Benzyl-2,5-dioxoimidazolidine-1-(1,2,3,4-tetrahydronaphthalen-1-yl)carboxamide] is 16-fold higher in IC50: 0.0005 µM for the first, 0.008 µM for the second.

O=C1CN(Cc2ccccc2)C(=O)N1C(=O)NCCc1cccs1 [Example 6, 3-Benzyl-2,5-dioxoimidazolidine-1-(2-thiophen-2-ylethyl)carboxamide] and Cc1ccccc1CNC(=O)N1C(=O)C2Cc3ccccc3CN2C1=O (centres unmarked) [Example 29, 1,3-Dioxo-1,5,10,10a-tetrahydroimidazo[1,5-b]isoquinoline-2-methylbenzyl-2-carboxamide] are the same in IC50: 0.143 µM for the first, 0.143 µM for the second.

CCCCCCNC(=O)N1C(=O)CN(C)C1=O [Example 8, 3-Methyl-2,5-dioxoimidazolidine-1-hexyl carboxamide] and CCCCCCCNC(=O)N1C(=O)CN(CCCC)C1=O [Example 21, 3-Butyl-2,5-dioxoimidazolidine-1-heptylcarboxamide] are within 1.5-fold of each other in IC50: 0.047 µM for the first, 0.059 µM for the second.

CCCCCCNC(=O)N1C(=O)N(C)C(C)(C)C1=O [Example 9, 3,4,4-Trimethyl-2,5-dioxoimidazolidine-1-hexylcarboxamide] and CCCCCCNC(=O)N1C(=O)C2CCCCN2C1=O (centres unmarked) [Example 23, 1,3-Dioxohexahydroimidazo[1,5-a]pyridine-2-hexylcarboxamide] are within 1.5-fold of each other in IC50: 0.037 µM for the first, 0.044 µM for the second.

Compared with CCCCCCNC(=O)N1C(=O)C2Cc3ccccc3CN2C1=O (centres unmarked) [Example 24, 1,3-Dioxo-1,5,10,10a-tetrahydroimidazo[1,5-b]isoquinoline-2-hexylcarboxamide], O=C(NC1CCCc2ccccc21)N1C(=O)C2Cc3ccccc3CN2C1=O (centres unmarked) [Example 28, 1,3-Dioxo-1,5,10,10a-tetrahydroimidazo[1,5-b]isoquinoline-2-(1,2,3,4-tetra-hydronaphthalen-1-yl)carboxamide] is 1.5-fold higher in IC50: 0.039 µM for the first, 0.059 µM for the second. The first is the more potent here.

From patent US8735437B2, “Imidazolidine carboxamide derivatives as lipase and phospholipase inhibitors” (Sanofi, priority 2007, dated 2014)
